Data set [1] is described as follows: Mouse 7-day dose range finding study. Format: in vivo. The following applies: 7 days. The procedure: Preparation of Test and Control/Vehicle Items: Vehicle is 2% TPGS/1.5% HPMCAS-HF/1.5% PVP-VA with 50 mM sodium citrate (pH 5.0) in deionized water. LPT-723 is a spray dried dispersion (SDD) containing 25% active and 75% HPMCAS-HF polymer. Test and vehicle items were stored at room temperature, protected from light, and desiccated. Dose formulation was prepared daily. Unless indicated otherwise, LPT-723 was mixed with vehicle to achieve the desired concentrations, using appropriate mixing equipment to achieve homogenous formulations.
The LPT-723 and vehicle were administered once per day for 7 consecutive days. Doses were administered at approximately the same time (±2 hours) throughout the duration of the study. All main study animals were submitted for necropsy on Day 8 (the day following the final dose).

For data set [2], the system named is HCT-116 human colon xenografts. In words: HCT-116 human colorectal cancer xenograft model. Conditions: LPT-723 30 mpk p.o. twice a day, BALB/c nude mice. The class given is in vivo. The procedure:
BALB/c nude mice bearing HCT-116 human colon xenografts were treated with control (vehicle) and LPT-723. Treatment was initiated when tumor volume reached approximately 80-120 mm^3. LPT-723 was dosed p.o. twice a day at 30 mpk.

A further data set deals with HCT116 cells. Briefly: In vitro activity on HCT116 cells in culture. Format: cell-based, human. The following applies: up to 30 μM.
A short description of data set [3]: Rat 28-day GLP toxicity study. The class given is in vivo, CD [Crl:CD (SD)] rats. Here is the method:
Vehicle and Test Article Preparation: The vehicle, 2% TPGS/1.5% HPMCAS-HF/1.5% PVP-VA with 50 mM pH 5.0 sodium citrate in deionized water, was prepared for use weekly and was stored at room temperature when not in use. A correction factor of 4 was used to adjust for purity when preparing the LPT-723 formulations. Appropriate amounts of the LPT-723 were mixed with the vehicle to achieve nominal concentrations of 0.3, 0.6, and 1.2 mg/mL. Formulations of the LPT-723 were prepared daily, stored at room temperature, protected from light, and were dosed within 4 hours of preparation.
Animal Acquisition and Acclimation: A total of 98 male and 98 female CD® [Crl:CD® (SD)] rats (approximately 6 to 7 weeks of age at receipt) were received from Charles River Laboratories, Portage, Mich. During the 10-day acclimation period, the animals were observed daily with respect to general health and any signs of disease. All animals were given a detailed clinical examination prior to selection for study. The animals were administered a sham dose of tap water on two occasions in the same manner and dose volume intended for use on study.
Randomization, Assignment to Study, and Maintenance: Using a standard, by weight, measured value randomization procedure, 85 male and 85 female animals (weighing 228 to 283 g and 170 to 218 g, respectively, at randomization) were assigned to the control and treatment groups identified in the following table.
Vehicle and LPT-723 Administration: Vehicle and LPT-723 were administered once daily for 22 days for main study animals at 12 mg/kg/day, for 23 days for TK animals at 12 mg/kg/day, and for 28 days for all animals at 0, 3, and 6 mg/kg/day. The animals were dosed via oral gavage at a dose volume of 10 mL/kg. The control group received the vehicle in the same manner as the treated groups. The vehicle and test article were dosed from stirred formulations at approximately the same time each day (±2 hours) based on the first animal dosed each day. Individual doses were based on the most recent body weights.

The test system of data set [4] is A20 murine syngeneic B cell lymphoma. Briefly: A20 lymphoma syngeneic model. The following applies: Day 15; LPT-723 30 mpk p.o. bid; anti-PD-1 10 mpk i.p. twice a week. The class given is in vivo, BALB/c mice. Here is the method: BALB/c mice bearing A20 murine syngeneic B cell lymphoma were treated with control (vehicle), anti-PD-1 (clone RMP1-14), LPT-723 and anti-PD-1/LPT-723 combination. Treatment was initiated when tumor volume reached approximately 80-120 mm^3. Anti-PD-1 was dosed i.p. twice a week for three weeks at 10 mpk. LPT-723 was dosed p.o. twice a day at 30 mpk. […] No significant changes in body weights were noted.

Data set [5] is described as follows: Monkey cardiovascular (CV) study. Format: in vivo. The following applies: 25 and 40 mg/kg oral gavage, male monkeys, cross-over.
Data set [6] deals with Salmonella typhimurium TA98 and TA100. In words: 2-Strain Ames test. Conditions: 1.5 to 5000 μg per plate, with and without rat liver S9. The source says:
Test System: The two tester strains used were the Salmonella typhimurium histidine auxotrophs TA98 and TA100 as described by Ames et al. (1975). Tester strain TA98 is reverted from auxotrophy to prototrophy by frameshift mutagens while tester strain TA100 is reverted by mutagens that cause both frameshift and base pair substitution mutations.
Experimental Design: The test system was exposed to LPT-723 via the plate incorporation methodology originally described by McCann et al. (1975) and updated by Maron and Ames (1983). Briefly, LPT-723 was tested at eight dose levels along with appropriate vehicle control and positive controls. Overnight cultures of tester strains TA98 and TA100 were plated on selective minimal agar in the presence and absence of Aroclor-induced rat liver S9. […]
Plating and Scoring Procedures: LPT-723 dilutions were prepared immediately before use and delivered to the test system at room temperature under yellow light. […] Plates were counted immediately following the incubation period or were stored at 2-8° C. until colony counting could be conducted.
The condition of the bacterial background lawn was evaluated for evidence of LPT-723 toxicity using a dissecting microscope. Precipitate was evaluated by visual examination without magnification. […] Plates with sufficient LPT-723 precipitate to interfere with automated colony counting were counted manually. […]
(The Ames test uses bacterial strains that need an amino acid and regain growth without it when mutated back.)

For the next data set, the system named is A20 cells. Briefly: In vitro cell viability assay, A20. The following applies: Mus musculus. The class given is cell-based, murine.
The subject of the next data set is Pan02 cells. In words: In vitro cell viability assay (CellTiter-Glo), Pan02. The class given is cell-based, murine. The following applies: Mus musculus. An excerpt:
No significant changes in body weights were noted.
A general note: ATP-based viability assays read luminescence as a measure of living cells.

Consider `Cc1cc(-c2cncc(C(O)C(F)(F)F)c2)nc2c1C(=O)N(c1cnn(CC(F)F)c1)C2(C)C` (stereo not drawn) [LPT-723], for which the tolerability result in data set [1] (mouse, 15, 35, 70 mg/kg/day) is listed as “well tolerated”. Also, in data set [1] (mouse), the “clinical signs and histopathology” value is listed as “no clinical signs or histopatholoy findings”; the “lymphocyte and monocyte counts” value is “decrease in lymphocyte and monocyte counts”. Besides, the tumor growth inhibition in [2] stood at 45%. The “activity in vitro on HCT116 cells in culture” value with HCT116 cells is given as “no activity”. Further, in [3], the therapeutic index is given as < 4 and the tolerability result is recorded as “poorly tolerated”. The no observed adverse effect level (NOAEL) in data set [3] (both sexes, CD [Crl:CD (SD)], in vivo, oral gavage once daily, 3, 6, 12 mg/kg/day, read-out: no observed adverse effect level (NOAEL)) was < 3 mg/kg. Moreover, the circulating neutrophils entry in [3] (clinical chemistry) is on record as “large increase in circulating neutrophils”. Moreover, the tissue findings entry in data set [3] (particularly gastrointestinal tract) is “inflammatory state in multiple organs”. Also, in [4], the “decrease in median tumor volume” value is 43%. Also, the toxicological observations result in data set [5] was “no significant toxicological observations”. The “toxicity (Ames plate incorporation)” value in [6] is given as “No toxicity was observed”. For the same compound, inhibition in the data set with A20 cells was half-maximal at 84.1 µM (IC50). This compound also displayed an IC50 in the data set on Pan02 cells of 26.6 µM.

As a reminder, the NOAEL is the highest dose or exposure tested at which no adverse effect was seen. Usually IC50 stands for the concentration that gives 50% inhibition.
